Patent US10112929B2, “Lactams as inhibitors of rock” (BRISTOL-MYERS SQUIBB COMPANY, priority 2015, dated 2018)

target: ROCK2 (Homo sapiens (Human), UniProt O75116); test: biochemical
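Also: rho kinase enzyme reaction halted with EDTA, phospho- and non-phospho peptide separated for read-out, kinase activity inhibition derived across a dose-response series, DMSO under 2%.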

Sequence of ROCK2 (O75116 whole entry, species assumed): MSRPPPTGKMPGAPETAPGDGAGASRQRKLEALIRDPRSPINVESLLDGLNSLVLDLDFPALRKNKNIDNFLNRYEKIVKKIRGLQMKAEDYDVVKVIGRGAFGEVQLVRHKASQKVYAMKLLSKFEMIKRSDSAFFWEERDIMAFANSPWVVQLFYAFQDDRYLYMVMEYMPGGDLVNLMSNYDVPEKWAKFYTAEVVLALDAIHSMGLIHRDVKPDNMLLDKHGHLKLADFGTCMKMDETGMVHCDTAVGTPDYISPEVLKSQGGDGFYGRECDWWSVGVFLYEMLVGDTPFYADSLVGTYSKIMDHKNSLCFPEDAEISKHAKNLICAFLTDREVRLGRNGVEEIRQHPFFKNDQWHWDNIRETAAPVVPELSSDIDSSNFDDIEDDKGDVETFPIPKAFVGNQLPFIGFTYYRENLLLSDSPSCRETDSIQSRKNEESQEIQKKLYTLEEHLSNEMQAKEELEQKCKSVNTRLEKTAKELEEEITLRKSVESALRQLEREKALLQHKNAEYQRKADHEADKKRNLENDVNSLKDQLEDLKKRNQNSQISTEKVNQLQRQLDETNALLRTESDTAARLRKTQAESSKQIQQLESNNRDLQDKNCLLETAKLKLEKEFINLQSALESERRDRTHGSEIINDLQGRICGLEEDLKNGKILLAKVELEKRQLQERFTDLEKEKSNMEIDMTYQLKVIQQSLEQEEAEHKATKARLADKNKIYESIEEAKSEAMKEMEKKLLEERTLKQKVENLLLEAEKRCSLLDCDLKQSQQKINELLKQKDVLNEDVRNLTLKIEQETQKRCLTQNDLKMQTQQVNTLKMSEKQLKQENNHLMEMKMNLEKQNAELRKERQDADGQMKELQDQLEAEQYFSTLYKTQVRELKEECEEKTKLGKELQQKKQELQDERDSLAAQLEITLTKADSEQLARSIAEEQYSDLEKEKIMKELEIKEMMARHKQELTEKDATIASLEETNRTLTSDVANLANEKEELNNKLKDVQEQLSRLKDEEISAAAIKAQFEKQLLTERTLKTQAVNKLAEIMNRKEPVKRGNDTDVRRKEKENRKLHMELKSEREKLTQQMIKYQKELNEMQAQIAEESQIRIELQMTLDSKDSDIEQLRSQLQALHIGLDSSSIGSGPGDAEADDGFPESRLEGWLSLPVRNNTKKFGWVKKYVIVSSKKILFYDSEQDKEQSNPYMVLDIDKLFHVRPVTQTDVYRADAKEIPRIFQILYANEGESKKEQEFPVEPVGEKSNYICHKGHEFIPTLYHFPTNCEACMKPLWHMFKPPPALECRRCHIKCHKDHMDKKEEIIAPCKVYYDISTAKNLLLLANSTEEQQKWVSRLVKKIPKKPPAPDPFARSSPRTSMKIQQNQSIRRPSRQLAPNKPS

| Compound | IC50 [nM] |
| --- | --- |
| COc1cccc(NC2CCN(c3ccc(-c4cn[nH]c4)c(CO)c3)C2=O)c1 (racemic) [Example 187, 1-(3-(hydroxymethyl)-4-(1H-pyrazol-4-yl)phenyl)-3-((3-methoxyphenyl)amino) pyrrolidin-2-one] | 100 to 2200 |
| COc1cccc(NC2CCN(c3cc(C)c(-c4cn[nH]c4)cn3)C2=O)c1 (racemic) [Example 200, 3-((3-methoxyphenyl)amino)-1-(4-methyl-5-(1H-pyrazol-4-yl)pyridin-2-yl)pyrrolidin-2-one] | 100 to 2200 |
| CCc1cc(N2CCC(Nc3ccc(F)c(OCC4CC4)c3)C2=O)ncc1-c1cn[nH]c1 (racemic) [Example 213, 3-((3-(cyclopropylmethoxy)-4-fluorophenyl)amino)-1-(4-ethyl-5-(1H-pyrazol-4-yl)pyridin-2-yl)pyrrolidin-2-one] | 100 to 2200 |
| O=C1C(Nc2cnccn2)CCN1c1ccc(-c2cn[nH]c2)cc1 (racemic) [Example 226, 1-(4-(1H-pyrazol-4-yl)phenyl)-3-(pyrazin-2-ylamino)pyrrolidin-2-one] | 10 to 100 |
| O=C1C(Nc2cncnc2)CCN1c1ccc(-c2cn[nH]c2)cc1 (racemic) [Example 227, 1-(4-(1H-pyrazol-4-yl)phenyl)-3-(pyrimidin-5-ylamino)pyrrolidin-2-one] | 10 to 100 |
| COc1nc(N2CCC(Nc3ccc4c(c3)OCCO4)C2=O)ccc1-c1cn[nH]c1 (racemic) [Example 256, 3-((2,3-dihydrobenzo[b][l,4]dioxin-6-yl)amino)-1-(6-methoxy-5-(1H-pyrazol-4-yl)pyridin-2-yl)pyrrolidin-2-one] | 10 to 100 |
| COc1ccc(Cl)c(NC2CCN(c3ccc(-c4cn[nH]c4)c(OC)n3)C2=O)c1 (racemic) [Example 261, 3-((2-chloro-5-methoxyphenyl)amino)-1-(6-methoxy-5-(1H-pyrazol-4-yl)pyridin-2-yl)pyrrolidin-2-one] | 10 to 100 |
| COc1nc(N2CCC(Nc3cccc(-c4cnco4)c3)C2=O)ccc1-c1cn[nH]c1 (racemic) [Example 262, 1-(6-methoxy-5-(1H-pyrazol-4-yl)pyridin-2-yl)-3-((3-(oxazol-5-yl)phenyl)amino) pyrrolidin-2-one] | 10 to 100 |
| COc1nc(N2CCC(Nc3ccc4c(c3)CS(=O)(=O)C4)C2=O)ccc1-c1cn[nH]c1 (racemic) [Example 263, 3-((2,2-dioxido-l,3-dihydrobenzo[c]thiophen-5-yl)amino)-1-(6-methoxy-5-(1H-pyrazol-4-yl)pyridin-2-yl)pyrrolidin-2-one] | 100 to 2200 |
| COc1nc(N2CCC(Nc3cccc(S(=O)(=O)N4CCOCC4)c3)C2=O)ccc1-c1cn[nH]c1 (racemic) [Example 264, 1-(6-methoxy-5-(1H-pyrazol-4-yl)pyridin-2-yl)-3-((3-(morpholinosulfonyl)phenyl)amino)pyrrolidin-2-one] | 10 to 100 |
| COc1nc(N2CCC(Nc3cccc(NS(C)(=O)=O)c3)C2=O)ccc1-c1cn[nH]c1 (racemic) [Example 265, N-(3-((1-(6-methoxy-5-(1H-pyrazol-4-yl)pyridin-2-yl)-2-oxopyrrolidin-3-yl)amino)phenyl)methanesulfonamide] | 10 to 100 |
| COc1nc(N2CCC(Nc3cccc(-c4nnn[nH]4)c3)C2=O)ccc1-c1cn[nH]c1 (racemic) [Example 266, 3-((3-(1H-tetrazol-5-yl)phenyl)amino)-1-(6-methoxy-5-(1H-pyrazol-4-yl)pyridin-2-yl)pyrrolidin-2-one] | 10 to 100 |
| COc1nc(N2CCC(Nc3cccc(OC(C)C)c3)C2=O)ccc1-c1cn[nH]c1 (racemic) [Example 267, 3-((3-isopropoxyphenyl)amino)-1-(6-methoxy-5-(1H-pyrazol-4-yl)pyridin-2-yl)pyrrolidin-2-one] | 10 to 100 |
| COc1nc(N2CCC(Nc3nc(C(C)(C)C)cs3)C2=O)ccc1-c1cn[nH]c1 (racemic) [Example 269, 3-((4-(tert-butyl)thiazol-2-yl)amino)-1-(6-methoxy-5-(1H-pyrazol-4-yl)pyridin-2-yl)pyrrolidin-2-one] | 100 to 2200 |
| COc1nc(N2CCC(Nc3cc(C)nn3C)C2=O)ccc1-c1cn[nH]c1 (racemic) [Example 270, 3-((1,3-dimethyl-1H-pyrazol-5-yl)amino)-1-(6-methoxy-5-(1H-pyrazol-4-yl)pyridin-2-yl)pyrrolidin-2-one] | 10 to 100 |
| COc1nc(N2CCC(Nc3cc(C)n(C)n3)C2=O)ccc1-c1cn[nH]c1 (racemic) [Example 271, 3-((1,5-dimethyl-1H-pyrazol-3-yl)amino)-1-(6-methoxy-5-(1H-pyrazol-4-yl)pyridin-2-yl)pyrrolidin-2-one] | 100 to 2200 |
| COc1nc(N2CCC(Nc3cnn(C(C)C)c3)C2=O)ccc1-c1cn[nH]c1 (racemic) [Example 272, 3-((1-isopropyl-1H-pyrazol-4-yl)amino)-1-(6-methoxy-5-(1H-pyrazol-4-yl)pyridin-2-yl)pyrrolidin-2-one] | 100 to 2200 |
| COc1nc(N2CCC(N3CCOCC3)C2=O)ccc1-c1cn[nH]c1 (racemic) [Example 273, 1-(6-methoxy-5-(1H-pyrazol-4-yl)pyridin-2-yl)-3-morpholinopyrrolidin-2-one] | 10 to 100 |
| COc1nc(N2CCC(N3CCOC[C@H]3C)C2=O)ccc1-c1cn[nH]c1 (mixture of isomers) [Example 274, 1-(6-methoxy-5-(1H-pyrazol-4-yl)pyridin-2-yl)-3-((R)-3-methylmorpholino) pyrrolidin-2-one] | 10 to 100 |
| COc1nc(N2CCC(N3CC(C)OC(C)C3)C2=O)ccc1-c1cn[nH]c1 (racemic) [Example 275, 3-(2,6-dimethylmorpholino)-1-(6-methoxy-5-(1H-pyrazol-4-yl)pyridin-2-yl)pyrrolidin-2-one] | 100 to 2200 |
| COc1nc(N2CCC(N3CCC(N(C)C)CC3)C2=O)ccc1-c1cn[nH]c1 (racemic) [Example 276, 3-(4-(dimethylamino)piperidin-1-yl)-1-(6-methoxy-5-(1H-pyrazol-4-yl)pyridin-2-yl)pyrrolidin-2-one] | 100 to 2200 |
| COc1nc(N2CCC(N3CCc4ccccc4C3)C2=O)ccc1-c1cn[nH]c1 (racemic) [Example 277, 3-(3,4-dihydroisoquinolin-2(1H)-yl)-1-(6-methoxy-5-(1H-pyrazol-4-yl)pyridin-2-yl)pyrrolidin-2-one] | 100 to 2200 |

More lines, now with the values ahead:

| IC50 [nM] | Compound |
| --- | --- |
| 10 to 100 | COc1cccc(NC2CCN(c3ccc(-c4ccnc(F)c4)c(OC)n3)C2=O)c1 (racemic) [Example 127, 1-(2′-fluoro-2-methoxy-[3,4′-bipyridin]-6-yl)-3-((3-methoxyphenyl)amino)pyrrolidin-2-one] |
| 10 to 100 | COc1cccc(NC2CCN(c3ccc(-c4ccnc5[nH]ccc45)c(OC)n3)C2=O)c1 (racemic) [Example 128, 1-(6-methoxy-5-(1H-pyrrolo[2,3-b]pyridin-4-yl)pyridin-2-yl)-3-((3-methoxyphenyl)amino) pyrrolidin-2-one] |
| < 10 | COc1cccc(NC2CCN(c3ccc(-c4c[nH]nc4C)c(OC)n3)C2=O)c1 (racemic) [Example 129, 1-(6-methoxy-5-(3-methyl-1H-pyrazol-4-yl)pyridin-2-yl)-3-((3-methoxyphenyl)amino)pyrrolidin-2-one] |
| < 10 | COc1nc(N2CCC(Nc3cccc(OCC4CC4)c3)C2=O)ccc1-c1cn[nH]c1 (racemic) [Example 205, 3-((3-(cyclopropylmethoxy)phenyl)amino)-1-(6-methoxy-5-(1H-pyrazol-4-yl)pyridin-2-yl)pyrrolidin-2-one] |
| 10 to 100 | COc1cccc(NC2CCN(c3ccc(-c4cn[nH]c4)cc3)C2=O)n1 (racemic) [Example 223, 1-(4-(1H-pyrazol-4-yl)phenyl)-3-((6-methoxypyridin-2-yl)amino)pyrrolidin-2-one] |
| < 10 | COc1nc(N2CCC(Nc3ccccc3F)C2=O)ccc1-c1cn[nH]c1 (racemic) [Example 224, 3-((2-fluorophenyl)amino)-1-(6-methoxy-5-(1H-pyrazol-4-yl)pyridin-2-yl)pyrrolidin-2-one] |
| < 10 | COc1nc(N2CCC(N3CCOc4ccccc43)C2=O)ccc1-c1cn[nH]c1 (racemic) [Example 225, 3-(2H-benzo[b][1,4]oxazin-4(3H)-yl)-1-(6-methoxy-5-(1H-pyrazol-4-yl)pyridin-2-yl)pyrrolidin-2-one] |
| < 10 | COc1nc(N2CCC(N3CCNc4ccccc43)C2=O)ccc1-c1cn[nH]c1 (racemic) [Example 228, 3-(3,4-dihydroquinoxalin-1(2H)-yl)-1-(6-methoxy-5-(1H-pyrazol-4-yl)pyridin-2-yl)pyrrolidin-2-one] |
| < 10 | COc1nc(N2CCC(Nc3ccc4c(c3)OCO4)C2=O)ccc1-c1cn[nH]c1 (racemic) [Example 255, 3-(benzo[d][1,3]dioxol-5-ylamino)-1-(6-methoxy-5-(1H-pyrazol-4-yl)pyridin-2-yl)pyrrolidin-2-one] |
| < 10 | COc1nc(N2CCC(Nc3cccc(C#N)c3)C2=O)ccc1-c1cn[nH]c1 (racemic) [Example 257, 3-((1-(6-methoxy-5-(1H-pyrazol-4-yl)pyridin-2-yl)-2-oxopyrrolidin-3-yl)amino)benzonitrile] |
| < 10 | COc1nc(N2CCC(Nc3cccc(C(N)=O)c3)C2=O)ccc1-c1cn[nH]c1 (racemic) [Example 258, 3-((1-(6-methoxy-5-(1H-pyrazol-4-yl)pyridin-2-yl)-2-oxopyrrolidin-3-yl)amino)benzamide] |
| < 10 | COc1nc(N2CCC(Nc3ccc4ncsc4c3)C2=O)ccc1-c1cn[nH]c1 (racemic) [Example 259, 3-(benzo[d]thiazol-6-ylamino)-1-(6-methoxy-5-(1H-pyrazol-4-yl)pyridin-2-yl)pyrrolidin-2-one] |
| < 10 | COc1nc(N2CCC(Nc3cccc(NC(C)=O)c3)C2=O)ccc1-c1cn[nH]c1 (racemic) [Example 260, N-(3-((1-(6-methoxy-5-(1H-pyrazol-4-yl)pyridin-2-yl)-2-oxopyrrolidin-3-yl)amino)phenyl)acetamide] |
| < 10 | COc1nc(N2CCC(Nc3cccc(S(N)(=O)=O)c3)C2=O)ccc1-c1cn[nH]c1 (racemic) [Example 268, 3-((1-(6-methoxy-5-(1H-pyrazol-4-yl)pyridin-2-yl)-2-oxopyrrolidin-3-yl)amino)benzenesulfonamide] |
